The test system of assay [1] is Mycobacterium tuberculosis. Nature of the assay: Antimycobacterial activity against Mycobacterium tuberculosis H37Rv assessed as inhibition of bacterial growth incubated for 7 to 14 days by MABA assay. Conditions: time 7-14 day. It is filed as functional. A general note: Resazurin is reduced to fluorescent resorufin, in cell work by metabolically active cells.
A further assay concerns Bipolaris sorokiniana. Nature of the assay: Antifungal activity against Cochliobolus sativus. It is filed as functional, organism-based.
Assay [2] deals with Bacillus subtilis. Nature of the assay: Antibacterial activity against Bacillus subtilis PY79 assessed as reduction in bacterial growth. In kind it is functional, organism-based.
In assay [3] the test system is Mycobacterium tuberculosis. Nature of the assay: Antibacterial activity against Mycobacterium tuberculosis H37Ra assessed as reduction in bacterial growth incubated for 14 days by CLSI protocol based method. It is filed as functional. The conditions noted are these: 336 h, time 14 day.
Assay [4] has as its system Staphylococcus aureus. Nature of the assay: Antibacterial activity against Staphylococcus aureus assessed as reduction in microbial growth by CLSI based broth microdilution method. In kind it is functional. In general terms: Dilution methods test growth across graded concentrations, often in twofold steps.
For assay [5], the system named is Staphylococcus aureus. Nature of the assay: Antimicrobial activity against methicillin-resistant Staphylococcus aureus assessed as reduction in microbial growth after 24 to 48 hrs by microdilution susceptibility test. Conditions: time 24-48 hrs. It is filed as functional.
The test system of the next assay is Pseudomonas aeruginosa. Nature of the assay: Antibacterial activity against Pseudomonas aeruginosa assessed as reduction in bacterial growth incubated for 24 hrs by broth microdilution method. It is filed as functional, organism-based.
Assay [6] relates to Mycobacterium intracellulare. Nature of the assay: Antibacterial activity against Mycobacterium intracellulare. In kind it is functional, organism-based.
In assay [7] the test system is Leishmania donovani. Nature of the assay: Antileishmanial activity against Leishmania donovani amastigotes infected in J774 macrophage assessed as inhibition of parasite growth incubated for 48 hrs by luciferase assay. It is filed as functional, organism-based. The conditions noted are these: J774, 48 h.
The test system of assay [8] is Mycobacterium tuberculosis. Nature of the assay: Antimycobacterial activity against Mycobacterium tuberculosis H37Rv. In kind it is functional.
The test system of assay [9] is Mycobacterium tuberculosis. Nature of the assay: Antimycobacterial activity against Mycobacterium tuberculosis Erdman. In kind it is functional.
Assay [10] has as its system Leishmania donovani. Nature of the assay: Antileishmanial activity against amastigote form of Leishmania donovani infected in BALB/c mouse assessed as inhibition of parasite growth in liver at 10 mg/kg, po measured for 7 days by geimsa staining based analysis relative to control. In kind it is functional. On the set-up: scale not given: the % may be the effect or the level left. The conditions noted are these: time 7 day.

For assay [11], the system named is Plasmodium falciparum. Nature of the assay: Antiplasmodial activity against Plasmodium falciparum assessed as parasite growth inhibition. In kind it is functional, organism-based.
For the next assay, the system named is Enterococcus faecalis. Nature of the assay: Antibacterial activity against Enterococcus faecalis. It is filed as functional.
The next assay deals with Streptococcus pyogenes. Nature of the assay: Antibacterial activity against Streptococcus pyogenes assessed as bacterial growth inhibition. It is filed as functional.
Assay [12] concerns Bacillus subtilis. Nature of the assay: Antibacterial activity against Bacillus subtilis. In kind it is functional.
Assay [13] deals with Mycolicibacterium smegmatis. Nature of the assay: Antimycobacterial activity against Mycobacterium smegmatis mc2 155 assessed as reduction in bacterial growth. In kind it is functional.
The subject of a further assay is Phytophthora capsici. Nature of the assay: Antifungal activity against Phytophthora capsici. It is filed as functional, organism-based.
The subject of a further assay is Alternaria kikuchiana. Nature of the assay: Antifungal activity against Alternaria kikuchiana. It is filed as functional, organism-based.
Assay [14] deals with Mycobacterium tuberculosis. Nature of the assay: Antimycobacterial activity against Mycobacterium tuberculosis H37Rv assessed as inhibition of bacterial growth by MABA assay. It is filed as functional.
For assay [15], the system named is Mycobacterium tuberculosis. Nature of the assay: Antimycobacterial activity against Mycobacterium tuberculosis Erdman assessed as inhibition of bacterial growth by MABA assay. In kind it is functional.
Another assay concerns Trypanosoma brucei. Nature of the assay: Antitrypanosomal activity against Trypanosoma brucei assessed as inhibition of parasite growth incubated for 72 hrs by resazurin reagent fluorimetric analysis. In kind it is functional, organism-based.
Assay [16] has as its system Mycobacterium tuberculosis. Nature of the assay: Antimycobacterial activity against Mycobacterium tuberculosis H37Ra ATCC 25177 assessed as reduction in bacterial growth after 7 days by resazurin microtiter assay. It is filed as functional. The conditions noted are these: H37Ra ATCC 25177, 168 h, time 7 day.
Another assay concerns Mycolicibacterium aurum. Nature of the assay: Antimycobacterial activity against Mycobacterium aurum. In kind it is functional.
Assay [17] deals with Mycolicibacterium fortuitum. Nature of the assay: Antimycobacterial activity against Mycobacterium fortuitum. In kind it is functional.
For assay [18], the system named is Mycobacterium tuberculosis. Nature of the assay: Antimycobacterial activity against Mycobacterium tuberculosis H37Ra. In kind it is functional, organism-based.
Assay [19] relates to Mycobacterium tuberculosis. Nature of the assay: Antitubercular activity against Mycobacterium tuberculosis H37Ra assessed as inhibition of bacterial growth. It is filed as functional.
In assay [20] the test system is Plasmodium falciparum. Nature of the assay: Antiparasitic activity against Plasmodium falciparum K1 assessed as reduction in parasite growth. In kind it is functional, organism-based.
The subject of another assay is Monilinia fructigena. Nature of the assay: Antifungal activity against Monilinia fructigena. In kind it is functional, organism-based.
The subject of a further assay is Candida albicans. Nature of the assay: Antifungal activity against Candida albicans ATCC 10231 assessed as fungal growth inhibition. It is filed as functional.
The next assay concerns Escherichia coli. Nature of the assay: Antibacterial activity against Escherichia coli. In kind it is functional.

SMILES strings stand for the structures. pIC50: −log10 of the molar value. Converted amounts (≈) assume the structure as drawn.

By MIC is commonly meant the smallest concentration in the dilution series that meets the test's criterion for growth inhibition. The EC50 is the concentration that produces a half-maximal response. Broadly, the IC50 is the concentration that gives 50% inhibition. The term pIC50 denotes the IC50 on a negative log10 scale, so that one unit is a factor of ten.

Consider `C#CC(O)/C=C/CCCCCCCCC/C=C/CCCCCCCCC/C=C/C(O)C#C` (stereo unspecified), for which, in assay [1], the minimal inhibitory concentration (MIC) is 1.4 µM (≈ 0.617 µg/mL).

As for `C=C[C@@H](O)C#CC#C/C=C/[C@H](O)CCCCCCCC`, the EC50 in the assay on Bipolaris sorokiniana is 37 µg/mL (≈ 135 µM).

Turning to `C#CC(O)/C=C/C(O)CCCC(O)CC#CC(O)C#CCCCCC(=O)CCCCC/C=C/C(O)CCCCCCCCCCCCC(O)C(O)C(O)C#CC(=O)O` (stereo unspecified), the 50% inhibitory concentration (IC50) with Bacillus subtilis [2] was 12 µg/mL (≈ 14.8 µM).

On to `C=C[C@@H](O)C#CC#C[C@@H](O)/C=C\CCCCCCC` [FALCARINDIOL], for which the minimum inhibitory concentration (MIC) in [3] came out at 1.6 µg/mL (≈ 6.14 µM); with Staphylococcus aureus [4] it was 7.8 µg/mL; in the assay on Staphylococcus aureus [5], 16 µg/mL.

Consider `CC(C)CCCC/C=C\CCCCCCCCC[C@@H](O)C#CC#CCO`, for which the pIC50 was 5.77 in the assay on Pseudomonas aeruginosa and 5.00 in assay [6].

Regarding `C=C[C@H](O)C#CC#C[C@@H](CCCCCCCCC)NCCCC`, the pIC50 in the assay on Leishmania donovani [7] was 8.52.

As for `C=CC(O)C#CC#CC(O)/C=C\CCCCCCCCOC(C)=O` (stereo unspecified), the minimal inhibitory concentration (MIC) is 25 µg/mL (≈ 75.2 µM) in [8] and 1.4 µg/mL (≈ 4.21 µM) in assay [9].

With `C=C[C@@H](C#CC#C[C@@H](CCCCCCCCC)NCCCC)OC(C)=O`, the negative-log IC50 (pIC50) in the assay on Leishmania donovani [7] was 7.52. Further, in the assay with Leishmania donovani [10], the Activity is on record as 32%.

With `C#CC(O)/C=C/C(O)CCCC(O)CC#CC(O)C#CCCCC(O)/C=C/CCCCCC(=O)CCCCCCCCCCCCCC(O)C(O)C(O)C#CC(=O)O` (stereo unspecified), in the assay with Bacillus subtilis [2], the half-maximal inhibitory concentration (IC50) amounted to 12 µg/mL (≈ 14.8 µM).

In the case of `C=C[C@@H](C#CC#C[C@@H](O)CCCCCCCCC)OC(C)=O`, the negative logarithm of the IC50 (pIC50) with Leishmania donovani [7] is 5.89. In the assay with Plasmodium falciparum [11], the IC50 came out at 0.27 µg/mL (≈ 0.887 µM).

Consider `C=C[C@@H](C#CC#C[C@H](O)CCCCCCCCC)OC(C)=O`, for which, in the assay with Leishmania donovani [7], the negative-log IC50 (pIC50) is 6.20. Besides, the IC50 in the assay with Plasmodium falciparum [11] is 0.341 µg/mL (≈ 1.12 µM). The values for the MIC in the assay with Enterococcus faecalis, in the assay on Streptococcus pyogenes and in the assay on Bacillus subtilis [12] were 32 µM (≈ 9.74 µg/mL), 8 µM (≈ 2.44 µg/mL) and 8 µM (≈ 2.44 µg/mL), respectively.

As to `C=C[C@@H](O)C#CC#CC[C@H]1O[C@H]1CCCCCCC`, the MIC in assay [3] amounted to 6.13 µg/mL (≈ 23.5 µM); in [13] it was 25 µg/mL (≈ 96 µM).

In the case of `C=C[C@H](O)C#CC#C[C@@H](O)c1cccs1`, the EC50 with Phytophthora capsici is 3.6 µg/mL (≈ 16.5 µM).

On to `C=C[C@@H](O)C#CC#CC/C=C/CCCCCCCC`, for which the EC50 in the assay on Alternaria kikuchiana stood at 51 µg/mL (≈ 197 µM).

As for `C=CC(O)C#CC#CC(O)C1OC1CCCCCCC` (stereo unspecified), the MIC in assay [14] and in [15] was greater than 60 µg/mL each time.

For the compound `C=CC(C#CC#CC(O)CCCCCCCCC)OC(C)=O` (stereo unspecified), in the assay with Trypanosoma brucei, the pIC50 is 6.34.

In the case of `CCCC/C=C/C#CC#CCCCCCCCC(=O)O` [EXOCARPIC ACID], in [16], the MIC stood at 20 µg/mL (≈ 72.9 µM).

For the compound `C=C[C@@H](C#CC#C[C@@H](CCCCCCCCC)NC(=O)c1ccccc1)OC(C)=O`, in the assay with Leishmania donovani [7], the negative logarithm of the IC50 (pIC50) was 7.52. For the same compound, the Activity in the assay on Leishmania donovani [10] was found to be 26%.

As to `C#CC(O)/C=C/C(O)CCCC(O)CC#CC(O)C#CC(O)CCCC(=O)CCCCC/C=C/C(O)CCCCCCCCCCCCC(O)C(O)C(O)C#CC(=O)O` (stereo unspecified), the IC50 in the assay with Bacillus subtilis [2] was 12 µg/mL (≈ 14.5 µM).

For `C=C[C@@H](O)C#CC#CC/C=C\CCCCCCC`, the minimal inhibitory concentration (MIC) in the assay on Mycolicibacterium aurum worked out at 16 µM (≈ 3.91 µg/mL); in assay [17], 16 µM (≈ 3.91 µg/mL); in [19], 3.73 µg/mL (≈ 15.3 µM); in assay [3], 6.25 µg/mL (≈ 25.6 µM); in assay [13], 12 µg/mL (≈ 49.1 µM). The compound further gave a pIC50 in [18] of 4.82.

For the compound `C=C[C@H](C#CC#C[C@@H](O)CCCCCCCCC)OC(C)=O`, the pIC50 in the assay on Leishmania donovani [7] was less than 5.00. Further, the IC50 with Plasmodium falciparum [20] amounted to 8.15 µg/mL (≈ 26.8 µM).

As for `C=C[C@H](C#CC#C[C@H](O)CCCCCCCCC)OC(C)=O`, the negative logarithm of the IC50 (pIC50) with Leishmania donovani [7] was less than 5.00. Also, the half-maximal inhibitory concentration (IC50) with Plasmodium falciparum [20] was 8.07 µg/mL (≈ 26.5 µM).

`C=CC(O)C#CC#CC(O)c1cccs1` (stereo unspecified): the concentration giving a half-maximal response (EC50) in the assay with Phytophthora capsici turned out to be 2.1 µg/mL (≈ 9.62 µM); in the assay on Monilinia fructigena, 4 µg/mL (≈ 18.3 µM).

In the case of `CCCCCCC/C=C\[C@H](O)C#CC#C[C@@H](O)CC` [OPLOPANDIOL], the minimal inhibitory concentration (MIC) in the assay with Candida albicans worked out at 12 µg/mL (≈ 45.7 µM).

For the compound `CC[C@H](O)C#CC#C[C@@H](O)/C=C\CCCCCCCCOC(C)=O` [OPLOPANDIOL ACETATE], in the assay on Escherichia coli, the minimal inhibitory concentration (MIC) was greater than 50 µg/mL.

The record behind these values is ChEMBL document CHEMBL6074642, “Natural and Bioinspired Lipidic Alkynylcarbinols as Leishmanicidal, Antiplasmodial, Trypanocidal, Fungicidal, Antibacterial, and Antimycobacterial Agents” (J Nat Prod, 2024).
